Experiments:
Assay in all cases: KINOMEscan competition binding
Conditions in all cases: compound 10.0 µM
[1] = molecular target: MYLK (human) (UniProt Q15746)
[2] = molecular target: MAPK3 (human) (UniProt P27361)
[3] = molecular target: MAP3K2 (human) (UniProt Q9Y2U5)
[4] = molecular target: STK38 (human) (UniProt Q15208)
[5] = molecular target: ROCK2 (human) (UniProt O75116)
[6] = molecular target: BLK (human) (UniProt P51451)
[7] = system: PIK3CA (human), P42336 [H1047L]
[8] = molecular target: GRK7 (human) (UniProt Q8WTQ7)
[9] = molecular target: PAK4 (human) (UniProt O96013)
[10] = molecular target: TXK (human) (UniProt P42681)
[11] = molecular target: ICK (human) (UniProt Q9UPZ9)
[12] = molecular target: FRK (human) (UniProt P42685)
FRK (human), sequence (P42685 whole entry, looked up): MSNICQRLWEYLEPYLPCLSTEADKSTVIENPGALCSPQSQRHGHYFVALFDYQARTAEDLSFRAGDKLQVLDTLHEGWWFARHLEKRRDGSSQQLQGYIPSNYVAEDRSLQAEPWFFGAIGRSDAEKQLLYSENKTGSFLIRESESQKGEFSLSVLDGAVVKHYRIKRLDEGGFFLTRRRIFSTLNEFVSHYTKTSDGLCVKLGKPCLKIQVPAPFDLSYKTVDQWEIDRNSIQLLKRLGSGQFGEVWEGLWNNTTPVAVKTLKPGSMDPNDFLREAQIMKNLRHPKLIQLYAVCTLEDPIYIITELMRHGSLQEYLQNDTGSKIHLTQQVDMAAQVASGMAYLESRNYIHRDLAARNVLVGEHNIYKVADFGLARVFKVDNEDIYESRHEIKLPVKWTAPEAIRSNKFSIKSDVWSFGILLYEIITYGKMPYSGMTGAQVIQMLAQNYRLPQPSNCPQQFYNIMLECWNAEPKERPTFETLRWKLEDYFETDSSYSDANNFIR

[13] = molecular target: PI4KB (human) (UniProt Q9UBF8)
[14] = system: KIT (human), P10721 [D816H]
[15] = molecular target: STK10 (human) (UniProt O94804)
[16] = molecular target: RPS6KA2 KD2 (human) (UniProt Q15349)
[17] = molecular target: MYO3B (human) (UniProt Q8WXR4)
[18] = molecular target: SRMS (human) (UniProt Q9H3Y6)
[19] = molecular target: ULK1 (human) (UniProt O75385)
[20] = molecular target: CAMK4 (human) (UniProt Q16566)
[21] = molecular target: ERBB2 (human) (UniProt P04626)
ERBB2 (human), sequence (P04626 whole entry, looked up): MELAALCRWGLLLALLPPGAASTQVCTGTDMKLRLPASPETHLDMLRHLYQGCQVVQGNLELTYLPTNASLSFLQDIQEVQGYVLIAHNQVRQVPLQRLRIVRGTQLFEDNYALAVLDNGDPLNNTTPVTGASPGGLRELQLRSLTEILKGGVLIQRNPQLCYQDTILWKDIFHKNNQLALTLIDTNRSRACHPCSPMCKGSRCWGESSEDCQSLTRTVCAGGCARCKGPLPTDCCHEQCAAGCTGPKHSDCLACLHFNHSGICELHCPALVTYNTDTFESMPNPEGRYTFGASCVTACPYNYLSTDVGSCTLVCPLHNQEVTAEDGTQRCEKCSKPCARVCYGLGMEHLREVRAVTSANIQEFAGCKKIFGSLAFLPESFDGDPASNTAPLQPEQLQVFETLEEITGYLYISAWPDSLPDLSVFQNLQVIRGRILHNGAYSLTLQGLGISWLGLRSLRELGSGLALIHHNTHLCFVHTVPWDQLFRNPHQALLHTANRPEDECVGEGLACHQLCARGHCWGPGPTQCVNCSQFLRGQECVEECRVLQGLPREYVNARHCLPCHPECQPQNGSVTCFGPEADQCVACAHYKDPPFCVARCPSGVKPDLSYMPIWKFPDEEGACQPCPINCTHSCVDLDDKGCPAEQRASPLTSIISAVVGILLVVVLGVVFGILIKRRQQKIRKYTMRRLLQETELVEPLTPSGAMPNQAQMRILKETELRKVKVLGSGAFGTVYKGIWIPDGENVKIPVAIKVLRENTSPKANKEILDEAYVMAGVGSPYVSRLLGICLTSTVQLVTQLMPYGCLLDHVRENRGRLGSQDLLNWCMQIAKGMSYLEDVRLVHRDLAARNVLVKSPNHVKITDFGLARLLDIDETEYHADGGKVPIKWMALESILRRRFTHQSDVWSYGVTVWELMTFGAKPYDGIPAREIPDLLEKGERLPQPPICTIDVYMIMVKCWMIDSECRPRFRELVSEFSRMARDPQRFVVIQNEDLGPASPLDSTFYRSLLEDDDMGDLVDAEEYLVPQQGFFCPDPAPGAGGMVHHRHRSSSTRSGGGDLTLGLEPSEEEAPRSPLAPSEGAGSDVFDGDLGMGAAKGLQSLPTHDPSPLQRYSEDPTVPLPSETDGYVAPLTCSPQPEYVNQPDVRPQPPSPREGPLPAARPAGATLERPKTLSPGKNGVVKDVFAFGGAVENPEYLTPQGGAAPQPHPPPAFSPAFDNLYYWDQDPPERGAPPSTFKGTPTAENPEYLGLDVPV

[22] = molecular target: MUSK (human) (UniProt O15146)
[23] = molecular target: MST1R (human) (UniProt Q04912)
[24] = molecular target: TYRO3 (human) (UniProt Q06418)
[25] = molecular target: MERTK (human) (UniProt Q12866)
[26] = system: EGFR (human), P00533 [G719C]
[27] = molecular target: FGR (human) (UniProt P09769)
[28] = molecular target: IGF1R (human) (UniProt P08069)
[29] = molecular target: TRPM6 (human) (UniProt Q9BX84)
TRPM6 (human), sequence (Q9BX84 whole entry, looked up): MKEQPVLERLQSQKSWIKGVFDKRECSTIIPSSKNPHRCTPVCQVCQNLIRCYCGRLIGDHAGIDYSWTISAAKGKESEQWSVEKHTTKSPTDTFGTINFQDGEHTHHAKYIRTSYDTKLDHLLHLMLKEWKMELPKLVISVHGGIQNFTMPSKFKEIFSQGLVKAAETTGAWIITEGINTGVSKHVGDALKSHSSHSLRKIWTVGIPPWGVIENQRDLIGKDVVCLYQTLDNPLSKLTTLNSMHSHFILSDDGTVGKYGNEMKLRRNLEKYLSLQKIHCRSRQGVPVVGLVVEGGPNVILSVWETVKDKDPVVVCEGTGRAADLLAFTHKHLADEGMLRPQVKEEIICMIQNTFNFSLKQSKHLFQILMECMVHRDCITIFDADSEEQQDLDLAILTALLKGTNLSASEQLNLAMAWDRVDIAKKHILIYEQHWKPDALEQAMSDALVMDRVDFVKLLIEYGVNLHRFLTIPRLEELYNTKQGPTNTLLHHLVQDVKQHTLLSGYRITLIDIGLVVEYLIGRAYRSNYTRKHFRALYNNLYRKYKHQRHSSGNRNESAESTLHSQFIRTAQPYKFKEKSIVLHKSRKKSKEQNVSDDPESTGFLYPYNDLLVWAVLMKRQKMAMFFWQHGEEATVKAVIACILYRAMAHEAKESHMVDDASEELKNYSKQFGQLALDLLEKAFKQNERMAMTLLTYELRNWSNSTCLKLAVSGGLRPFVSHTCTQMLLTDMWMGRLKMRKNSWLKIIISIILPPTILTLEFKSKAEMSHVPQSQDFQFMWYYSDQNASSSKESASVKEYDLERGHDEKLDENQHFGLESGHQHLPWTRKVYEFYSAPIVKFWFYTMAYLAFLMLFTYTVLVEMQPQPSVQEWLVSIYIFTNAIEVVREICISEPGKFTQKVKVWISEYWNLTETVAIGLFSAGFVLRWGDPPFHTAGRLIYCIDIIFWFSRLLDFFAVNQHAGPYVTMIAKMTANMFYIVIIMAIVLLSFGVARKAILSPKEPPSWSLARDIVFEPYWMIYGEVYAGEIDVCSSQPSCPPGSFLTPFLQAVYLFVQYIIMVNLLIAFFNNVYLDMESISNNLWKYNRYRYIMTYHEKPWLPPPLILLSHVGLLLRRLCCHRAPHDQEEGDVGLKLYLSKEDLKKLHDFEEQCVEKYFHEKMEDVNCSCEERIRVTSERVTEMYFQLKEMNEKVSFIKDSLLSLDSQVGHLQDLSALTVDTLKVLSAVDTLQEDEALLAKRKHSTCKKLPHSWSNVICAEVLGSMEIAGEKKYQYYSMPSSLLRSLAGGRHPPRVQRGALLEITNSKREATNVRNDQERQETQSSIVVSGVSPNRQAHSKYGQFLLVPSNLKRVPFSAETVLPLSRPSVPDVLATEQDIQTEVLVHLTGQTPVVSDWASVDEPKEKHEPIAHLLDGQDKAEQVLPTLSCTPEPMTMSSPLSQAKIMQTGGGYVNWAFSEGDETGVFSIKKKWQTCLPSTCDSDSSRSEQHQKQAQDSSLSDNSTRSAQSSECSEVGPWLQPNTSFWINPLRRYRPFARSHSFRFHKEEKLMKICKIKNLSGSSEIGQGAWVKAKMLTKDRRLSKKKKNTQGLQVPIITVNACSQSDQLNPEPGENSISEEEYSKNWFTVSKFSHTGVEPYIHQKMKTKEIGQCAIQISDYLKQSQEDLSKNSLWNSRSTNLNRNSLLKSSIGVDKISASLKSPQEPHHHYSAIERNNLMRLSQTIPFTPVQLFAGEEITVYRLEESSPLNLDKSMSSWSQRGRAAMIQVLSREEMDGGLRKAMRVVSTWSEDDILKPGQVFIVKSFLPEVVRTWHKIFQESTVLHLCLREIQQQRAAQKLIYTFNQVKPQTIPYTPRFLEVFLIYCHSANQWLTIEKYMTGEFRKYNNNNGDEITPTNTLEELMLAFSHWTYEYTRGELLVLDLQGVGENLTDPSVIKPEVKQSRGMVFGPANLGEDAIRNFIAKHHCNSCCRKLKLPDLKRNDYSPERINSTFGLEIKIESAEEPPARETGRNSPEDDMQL

[30] = molecular target: MAP4K4 (human) (UniProt O95819)
MAP4K4 (human), sequence (O95819 whole entry, looked up): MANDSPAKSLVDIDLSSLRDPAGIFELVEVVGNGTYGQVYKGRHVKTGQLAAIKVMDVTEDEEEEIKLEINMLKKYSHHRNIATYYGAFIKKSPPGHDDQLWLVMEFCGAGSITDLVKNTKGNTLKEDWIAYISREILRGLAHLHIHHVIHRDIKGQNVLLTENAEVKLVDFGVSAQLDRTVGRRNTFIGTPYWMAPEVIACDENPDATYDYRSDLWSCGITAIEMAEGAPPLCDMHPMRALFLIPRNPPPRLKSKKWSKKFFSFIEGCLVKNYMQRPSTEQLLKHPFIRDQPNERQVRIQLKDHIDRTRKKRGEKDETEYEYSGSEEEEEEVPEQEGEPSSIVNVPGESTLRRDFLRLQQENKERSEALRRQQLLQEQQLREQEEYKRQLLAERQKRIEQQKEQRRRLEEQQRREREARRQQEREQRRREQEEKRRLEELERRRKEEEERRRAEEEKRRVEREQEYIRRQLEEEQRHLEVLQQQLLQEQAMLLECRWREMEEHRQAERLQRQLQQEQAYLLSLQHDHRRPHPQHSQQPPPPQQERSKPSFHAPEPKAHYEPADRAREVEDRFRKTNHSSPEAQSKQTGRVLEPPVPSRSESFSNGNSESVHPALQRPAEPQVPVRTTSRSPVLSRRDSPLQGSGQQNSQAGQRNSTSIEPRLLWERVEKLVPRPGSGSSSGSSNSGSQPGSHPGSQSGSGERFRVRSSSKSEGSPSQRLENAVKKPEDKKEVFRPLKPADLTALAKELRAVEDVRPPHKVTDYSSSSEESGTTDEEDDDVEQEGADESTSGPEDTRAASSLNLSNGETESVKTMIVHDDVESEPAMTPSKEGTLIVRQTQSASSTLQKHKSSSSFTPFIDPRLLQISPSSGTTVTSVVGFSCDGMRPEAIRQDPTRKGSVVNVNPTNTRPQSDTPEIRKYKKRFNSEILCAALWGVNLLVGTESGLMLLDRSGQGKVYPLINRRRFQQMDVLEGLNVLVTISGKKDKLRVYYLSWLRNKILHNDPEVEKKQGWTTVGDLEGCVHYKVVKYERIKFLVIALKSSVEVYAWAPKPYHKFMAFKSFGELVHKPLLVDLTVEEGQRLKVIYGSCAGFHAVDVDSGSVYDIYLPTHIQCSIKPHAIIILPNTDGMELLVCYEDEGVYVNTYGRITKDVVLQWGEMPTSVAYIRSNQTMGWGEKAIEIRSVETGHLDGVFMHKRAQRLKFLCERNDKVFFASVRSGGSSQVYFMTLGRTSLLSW

[31] = molecular target: MAST1 (human) (UniProt Q9Y2H9)
[32] = molecular target: NEK2 (human) (UniProt P51955)
[33] = molecular target: MYLK4 (human) (UniProt Q86YV6)
[34] = molecular target: TGFBR1 (human) (UniProt P36897)
[35] = molecular target: PIM2 (human) (UniProt Q9P1W9)
[36] = molecular target: TAOK2 (human) (UniProt Q9UL54)
[37] = molecular target: PTK2B (human) (UniProt Q14289)
[38] = molecular target: TAOK1 (human) (UniProt Q7L7X3)
[39] = molecular target: FGFR2 (human) (UniProt P21802)
[40] = molecular target: TGFBR2 (human) (UniProt P37173)

CC1=C(C(=O)Nc2cc3cn[nH]c3cc2F)C(c2ccc(C(F)(F)F)cc2)CC(=O)N1 (stereo not given)
kinase still bound, per cent of control [1]: 75% | kinase still bound, per cent of control [2]: 53% | kinase still bound, per cent of control [3]: 79% | kinase still bound, per cent of control [4]: 19% | kinase still bound, per cent of control [5]: 0.1% | kinase still bound, per cent of control [6]: 12% | kinase still bound, per cent of control [7]: 83% | kinase still bound, per cent of control [8]: 75% | kinase still bound, per cent of control [9]: 85% | kinase still bound, per cent of control [10]: 83% | kinase still bound, per cent of control [11]: 79% | kinase still bound, per cent of control [12]: 53% | kinase still bound, per cent of control [13]: 100% | kinase still bound, per cent of control [14]: 69% | kinase still bound, per cent of control [15]: 100% | kinase still bound, per cent of control [16]: 94% | kinase still bound, per cent of control [17]: 100% | kinase still bound, per cent of control [18]: 58% | kinase still bound, per cent of control [19]: 74% | kinase still bound, per cent of control [20]: 100% | kinase still bound, per cent of control [21]: 71% | kinase still bound, per cent of control [22]: 95% | kinase still bound, per cent of control [23]: 55% | kinase still bound, per cent of control [24]: 100% | kinase still bound, per cent of control [25]: 91% | kinase still bound, per cent of control [26]: 37% | kinase still bound, per cent of control [27]: 78% | kinase still bound, per cent of control [28]: 98% | kinase still bound, per cent of control [29]: 70% | kinase still bound, per cent of control [30]: 78% | kinase still bound, per cent of control [31]: 77% | kinase still bound, per cent of control [32]: 100% | kinase still bound, per cent of control [33]: 88% | kinase still bound, per cent of control [34]: 100% | kinase still bound, per cent of control [35]: 100% | kinase still bound, per cent of control [36]: 96% | kinase still bound, per cent of control [37]: 100% | kinase still bound, per cent of control [38]: 53% | kinase still bound, per cent of control [39]: 95% | kinase still bound, per cent of control [40]: 85%

From the kinase profiling compilation of Christmann-Franck et al. (2016)
